pIC50: −log10 of the molar value.
Test system: 324938-238-R-J1-PDC complex spheroids viability
Experiment: Anticancer human tumor 324938-238-R-J1-PDC patient-derived bladder carcinoma cell line growth inhibition [CLK]
Conditions: for pIC50: curve of first compound; for viability, T/C: stronger effect = lower value
In short: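 Patient-derived tumor cells grown as complex spheroids with HUVEC endothelial cells and mesenchymal stem cells, treated with drug combinations. Concentrations descend in half-log steps from near clinical Cmax, or from 10 microM if Cmax unknown.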

[1] = second compound 0.0316 µM, first compound 0.0316 µM
[2] = second compound 0.0316 µM, first compound 0.1 µM
[3] = second compound 0.0316 µM, first compound 0.316 µM
[4] = second compound 0.0316 µM, first compound 1 µM
[5] = second compound 0.0316 µM, first compound 3.16 µM
[6] = second compound 0.0316 µM, first compound 10 µM
[7] = second compound 0.1 µM, first compound 0.0316 µM
[8] = second compound 0.1 µM, first compound 0.1 µM
[9] = second compound 0.1 µM, first compound 0.316 µM
[10] = second compound 0.1 µM, first compound 1 µM
[11] = second compound 0.1 µM, first compound 3.16 µM
[12] = second compound 0.1 µM, first compound 10 µM
[13] = second compound 0.316 µM, first compound 0.0316 µM
[14] = second compound 0.316 µM, first compound 0.1 µM
[15] = second compound 0.316 µM, first compound 0.316 µM
[16] = second compound 0.316 µM, first compound 1 µM
[17] = second compound 0.316 µM, first compound 3.16 µM
[18] = second compound 0.316 µM, first compound 10 µM
[19] = second compound 1 µM, first compound 0.0316 µM
[20] = second compound 1 µM, first compound 0.1 µM
[21] = second compound 1 µM, first compound 0.316 µM
[22] = second compound 1 µM, first compound 1 µM
[23] = second compound 1 µM, first compound 3.16 µM
[24] = second compound 1 µM, first compound 10 µM
[25] = second compound 3.16 µM, first compound 0.0316 µM
[26] = second compound 3.16 µM, first compound 0.1 µM
[27] = second compound 3.16 µM, first compound 0.316 µM
[28] = second compound 3.16 µM, first compound 1 µM
[29] = second compound 3.16 µM, first compound 3.16 µM
[30] = second compound 3.16 µM, first compound 10 µM
[31] = second compound 10 µM, first compound 0.0316 µM
[32] = second compound 10 µM, first compound 0.1 µM
[33] = second compound 10 µM, first compound 0.316 µM
[34] = second compound 10 µM, first compound 1 µM
[35] = second compound 10 µM, first compound 3.16 µM
[36] = second compound 10 µM, first compound 10 µM
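Further: viability read after seven days of drug exposure.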
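Wherever viability, T/C is given: 100% = DMSO vehicle control wells.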

Work on `CC1COCCN1c1cc(C2(S(C)(=N)=O)CC2)nc(-c2ccnc3[nH]ccc23)n1` (centres undefined) + CNC(=O)c1ccc(Nc2nc(OC3CCCC3)c3c(-c4ccc5nc(C)oc5c4)c[nH]c3n2)c(OC)c1 yielded a pIC50 (second compound 0.0316 µM) of 5.86, a pIC50 (second compound 0.1 µM) of over 7.50 and a pIC50 (second compound 0.316 µM) of over 7.50. It also gave a pIC50 (second compound 1 µM) of over 7.50, a pIC50 (second compound 3.16 µM) of over 7.50 and a pIC50 (second compound 10 µM) of over 7.50. It also gave a viability, T/C [1] of 90.4%, a viability, T/C [2] of 89.2% and a viability, T/C [3] of 71%. For the same compound, the viability, T/C [4] was 60.7%, the viability, T/C [5] was 31.1% and the viability, T/C [6] was 15.5%. The viability, T/C [7] was 30.8%, the viability, T/C [8] was 29.2% and the viability, T/C [9] was 26.2%. It also gave a viability, T/C [10] of 27.4%, a viability, T/C [11] of 24.1% and a viability, T/C [12] of 17.1%. The viability, T/C [13] was 18.6%, the viability, T/C [14] was 19.4% and the viability, T/C [15] was 17.2%. For the same compound, the viability, T/C [16] was 17.4%, the viability, T/C [17] was 12.9% and the viability, T/C [18] was 10.9%. The viability, T/C [19] was 14.7%, the viability, T/C [20] was 15.8% and the viability, T/C [21] was 16%. For the same compound, the viability, T/C [22] was 12.6%, the viability, T/C [23] was 13.9% and the viability, T/C [24] was 7.97%. It also gave a viability, T/C [25] of 16.2%, a viability, T/C [26] of 15.1% and a viability, T/C [27] of 16.9%. For the same compound, the viability, T/C [28] was 15.6%, the viability, T/C [29] was 13.1% and the viability, T/C [30] was 7.09%. It also gave a viability, T/C [31] of 16.6%, a viability, T/C [32] of 15.1% and a viability, T/C [33] of 16.7%. The viability, T/C [34] was 15.2%, the viability, T/C [35] was 14.5% and the viability, T/C [36] was 8.22%.
In the case of `O=C(c1cc(Cc2n[nH]c(=O)c3ccccc23)ccc1F)N1CCN(C(=O)C2CC2)CC1` + CNC(=O)c1ccc(Nc2nc(OC3CCCC3)c3c(-c4ccc5nc(C)oc5c4)c[nH]c3n2)c(OC)c1, the pIC50 (second compound 0.0316 µM) was 5.37, the pIC50 (second compound 0.1 µM) was over 7.50 and the pIC50 (second compound 0.316 µM) was over 7.50. The pIC50 (second compound 1 µM) was over 7.50, the pIC50 (second compound 3.16 µM) was over 7.50 and the pIC50 (second compound 10 µM) was over 7.50. The viability, T/C [1] was 90.9%, the viability, T/C [2] was 78.5% and the viability, T/C [3] was 83.2%. It also gave a viability, T/C [4] of 77.7%, a viability, T/C [5] of 56.9% and a viability, T/C [6] of 29.4%. For the same compound, the viability, T/C [7] was 31.1%, the viability, T/C [8] was 27.2% and the viability, T/C [9] was 24.9%. For the same compound, the viability, T/C [10] was 28%, the viability, T/C [11] was 30.4% and the viability, T/C [12] was 20.8%. It also gave a viability, T/C [13] of 18.6%, a viability, T/C [14] of 20.8% and a viability, T/C [15] of 16.2%. For the same compound, the viability, T/C [16] was 21.2%, the viability, T/C [17] was 19% and the viability, T/C [18] was 17.9%. For the same compound, the viability, T/C [19] was 15.9%, the viability, T/C [20] was 15.2% and the viability, T/C [21] was 16.8%. For the same compound, the viability, T/C [22] was 15.3%, the viability, T/C [23] was 17.7% and the viability, T/C [24] was 15.8%. The viability, T/C [25] was 16.9%, the viability, T/C [26] was 17.1% and the viability, T/C [27] was 19.4%. The viability, T/C [28] was 17.3%, the viability, T/C [29] was 15.5% and the viability, T/C [30] was 17.7%. For the same compound, the viability, T/C [31] was 16.2%, the viability, T/C [32] was 14.3% and the viability, T/C [33] was 15.3%. It also gave a viability, T/C [34] of 18.2%, a viability, T/C [35] of 16.1% and a viability, T/C [36] of 17.4%.

Reference: PubChem BioAssay AID2060621 (Molecular Pharmacology Branch, DTP, NCI, 2025)
